Measurements reported in patent US20250346588A1, “IMIDAZOPYRIDINE AND OXAZOLOPYRIDINE DERIVATIVES AND ANALOGS THEREOF, METHODS OF PREPARATION THEREOF, METHODS OF HIF-1/2A PATHWAY INHIBITION, AND INDUCTION OF FERROPTOSIS” (KUDA THERAPEUTICS, INC., priority 2022, published 2025).

Legend:
[1] = tested on: HIF-2α transcriptional activity; assay: Hypoxia-responsive element-driven luciferase (HRE-Luc) screen; format: cell-based, human; conditions: 786-0 ccRCC cells stably expressing HRE-Luc, 24 h treatment, range of IC50 values
Method: Screens for inhibitory activity of compounds described herein were performed using 786-0 ccRCC cells that stably express HRE-Luc: 5 copies of the hypoxia-responsive element (HRE) fused to the pGL3 luciferase reporter (Promega Corp, Madison WI). 786-0 cells are pVHL deficient and thus constitutively express HIF-2α independently of cellular oxygen tension. Since 786-0 cells lack HIF-1α, HRE-driven luciferase activity is primarily HIF-2α driven, and has been previously validated. Cells were maintained at log phase growth in […] (DMEM) with 10% FBS in a humidified incubator at 37° C. with 5% CO2. For screening assays, cells were seeded at a density of 4,000 cells in 50 μl of complete media/well in quadruplicate wells/point in a 96-well plate. After 24 h, 50 μl of a 2× concentration of test compound was added to each well. Compounds were diluted from a 5-10 mM stock in DMSO and final concentrations of DMSO in each well in controls and treated wells were kept constant at ≤0.6% DMSO. After 24 h treatment, luciferase activity was measured using the Steady-Glo Luciferase assay system (Promega Corp) according to the manufacturer's protocol. Cell viability was measured in quadruplicate parallel wells using resazurin as recommended by the manufacturer (R&D systems, Minneapolis, MN). Data for luciferase and resazurin were normalized to DMSO treated controls (defining 100%) and wells containing assay reagent but no cells (defining 0%) and graphed using the log inhibitor versus normalized response option in Graphpad Prism 9.3.1 software. Representative data determined using Steady-Glo luciferase and resazurin are shown in FIGS. 1A and 1B respectively, with error bars showing SD. Filled diamonds, empty squares and empty triangles indicate treatment with 3, 8 and 22 respectively with results for HRE-Luc shown in FIG. 1A.

[2] = target: T1, ISCA2 (Homo sapiens, UniProt Q86U28); assay: Thermal shift assay with recombinant ISCA2 (SYPRO Orange); format: binding
T1 construct: His6 (N); made in house; host or cells: E. coli Rosetta (DE3)
T1 sequence (Q86U28 9-154): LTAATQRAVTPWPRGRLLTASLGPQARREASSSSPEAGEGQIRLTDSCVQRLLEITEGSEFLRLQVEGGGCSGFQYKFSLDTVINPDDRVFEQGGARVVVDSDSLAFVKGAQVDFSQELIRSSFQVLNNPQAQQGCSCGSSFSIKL
Method: Thermal shift assays were performed by monitoring the change in protein melting temperature (Tm) in the absence or presence of test compounds, using the hydrophobic protein binding dye, SYPRO Orange (S6650, Thermo Fisher Scientific), measured using the LightCycler 480 (Roche Life Sciences, Indianapolis, IN) according to the manufacturer's protocol. Recombinant ISCA2 was produced by expressing amino acid residues 9-154 of ISCA2 (ISCA2 lacking its mitochondrial localization sequence) in the pET28 vector containing an N-terminal His6 tag in Rosetta (DE3) competent cells (Novagen, Millipore Sigma). ISCA2 production was induced by treating ISCA2 transformed log phase cells with 0.25 mM IPTG for 4 hours at 18° C. ISCA2 was purified using Ni^2+ affinity purification according to standard protocols and eluted in 50 mM Tris-C1 pH7.4, 150 mM NaCl, 5 mM DTT. Thermal shift assays were performed in 384-well plates using 1 μl of a 10× concentration of SYPRO Orange, 8 μl of ISCA2 (4 μg protein) and 1 μl of 1-2 mM stock of test compound per well. The LightCycler was used according to the following setup: LightCycler 480 Instrument Temperature Setup: First target of 20° C., with a Hold of 15 seconds; second target of 95° C., with Acquisition Mode of Continuous, and 10 acquisitions per degree c.; and third target of 20° C., with a Hold of 15 seconds. Tms were determined using Roche Protein Melting Analysis Software. Representative data are shown in FIGS. 6 and 7 using compound 1 and 26HCL at 200 and 100 µM final concentration respectively. […] These findings are supported by studies showing that re-expression of VHL (which increases ISCA2) and overexpression of ISCA2 itself, promotes the resistance of cells to the compounds (shown in FIG. 8).

[3] = tested on: HIF-1α and HIF-2α; assay: Western blots for HIF-1α and HIF-2α in ccRCC cells; format: cell-based, human; conditions: 786-0 or RCC10 ccRCC cells, 24h, relative to GAPDH
Method: (§1) Western blots were performed to determine the effects of the compounds on levels of HIF-2α and other relevant proteins, whereas qPCR was performed to determine the effects of compounds on transcript levels of HIF target genes. 786-0 or RCC10 cells were plated at 1×10E5 cells/well in 2 ml DMEM with 10% FBS/well in 6-well tissue culture plates. Cells were allowed to adhere overnight in a humidified incubator at 37° C. with 5% CO2, after which the appropriate concentrations of compounds in DMSO were added. DMSO concentrations were kept constant in all wells. After 24 h exposure to the compounds, cells were lysed and subjected to western blotting according to standard protocols. Antibodies for HIF-1α and HIF-2α and GAPDH were purchased from Cell Signaling Technology (Danvers, MA), whereas antibodies to IRP2 and pVHL were from Santa Cruz Biotechnology (Dallas, TX), and GPX4 antibody was from R&D Systems, Inc (Minneapolis, MN). Representative data in FIG. 2 show a dose-dependent effect of compounds in decreasing HIF-1/2α. Compounds also impact cellular iron sensing given by increased IRP2, which taken together indicate that cells sense decreased amounts of available iron, which triggers the iron starvation response initiated by IRP2 stabilization. Representative data shown in FIG. 3D show a dose dependent effect of the compounds on GPX4, which may indicate decreased resistance to ferroptosis. […] The data also show increased expression of ISCA2 with pVHL re-expression.

[4] = tested on: IRP2 and GPX4; assay: Western blots for cellular iron-sensing machinery (IRP2, GPX4); format: cell-based, human; conditions: 786-0 or RCC10 ccRCC cells, 24h, relative to GAPDH
Method: as §1

| Compound | IC50 ([1]; Homo sapiens, 786-0, 24 h) [µM] | other results |
| --- | --- | --- |
| COc1cccc2sc(Nc3nnc(-c4ccc(F)cc4)o3)nc12 [Compound 1, 5-(4-fluorophenyl)-N-(4-methoxybenzo[d]thiazol-2-yl)-1,3,4-oxadiazol-2-amine] | < 10 | Tm of ISCA2 in compound-treated wells ([2]; 200 μM compound, control wells 53.21±0.36): 55.63±0.26 °C; change in melting temperature of ISCA2 (in words) ([2]; compound 1 and 26HCL at 200 and 100 μM final concentration respectively): significant change in melting temperature of ISCA2; effect on HIF-1α and HIF-2α protein (Western blot) [3]: decreases HIF-1α and HIF-2α; effect on IRP2 protein (Western blot) [4]: increases IRP2 |
| COc1cccc2nc(Nc3nnc(N4CCOCC4)o3)[nH]c12 [Compound 72, N-(7-methoxy-1H-benzo[d]imidazol-2-yl)-5-morpholino-1,3,4-oxadiazol-2-amine] | 10 to 50 |  |
| COc1cccc2[nH]c(Nc3nnc(N4CCN(C)CC4)o3)nc12 [Compound 73, N-(4-methoxy-1H-benzo[d]imidazol-2-yl)-5-(4-methylpiperazin-1-yl)-1,3,4-oxadiazol-2-amine] | 50 to 100 |  |
| COc1cccc2[nH]c(Nc3nnc(N4CCS(=O)(=O)CC4)o3)nc12 [Compound 76, 4-(5-((4-methoxy-1H-benzo[d]imidazol-2-yl)amino)-1,3,4-oxadiazol-2-yl)thiomorpholine 1,1-dioxide] | > 100 |  |
| COc1ccc(-c2nnc(Nc3nc4cccc(OC)c4[nH]3)o2)cc1 [Compound 82, N-(7-methoxy-1H-benzo[d]imidazol-2-yl)-5-(4-methoxyphenyl)-1,3,4-oxadiazol-2-amine] | 10 to 50 |  |
| COc1ccc(-c2nnc(Nc3nc4c(OC)cccc4[nH]3)o2)c(C)c1 [Compound 83, N-(4-methoxy-1H-benzo[d]imidazol-2-yl)-5-(4-methoxy-2-methylphenyl)-1,3,4-oxadiazol-2-amine] | > 100 |  |
| COc1ccc(-c2nnc(Nc3nc4c(OC)cccc4[nH]3)o2)cc1OC [Compound 84, 5-(3,4-dimethoxyphenyl)-N-(4-methoxy-1H-benzo [d]imidazol-2-yl)-1,3,4-oxadiazol-2-amine] | < 10 |  |
| COc1nc(C)cc2[nH]c(Nc3nnc([C@H]4CC[C@H](OC)CC4)o3)nc12 [Compound 99, N-(4-methoxy-6-methyl-1H-imidazo[4,5-c]pyridin-2-yl)-5-((1r,4r)-4-methoxycyclohexyl)-1,3,4-oxadiazol-2-amine] |  | IC50 [1]: < 10 µM |
| COc1nc(C)cc2[nH]c(Nc3nnc([C@H]4CC[C@@H](OC)CC4)o3)nc12 [Compound 100, N-(4-methoxy-6-methyl-1H-imidazo[4,5-c]pyridin-2-yl)-5-((1s,4s)-4-methoxycyclohexyl)-1,3,4-oxadiazol-2-amine] | < 10 |  |

Second part, led by results:

| IC50 ([1]; Homo sapiens, 786-0, 24 h) [µM] | Compound | other results |
| --- | --- | --- |
| 10 to 50 | COc1cccc2nc(Nc3nnc(C4CCN(C)CC4)o3)[nH]c12 [Compound 74, N-(7-methoxy-1H-benzo[d]imidazol-2-yl)-5-(1-methylpiperidin-4-yl)-1,3,4-oxadiazol-2-amine] |  |
| > 100 | COc1ccc(-c2nnc(Nc3nc4c(OC)cccc4[nH]3)o2)cc1F [Compound 85, 5-(3-fluoro-4-methoxyphenyl)-N-(4-methoxy-1H-benzo[d]imidazol-2-yl)-1,3,4-oxadiazol-2-amine] |  |
| 50 to 100 | COc1cccc2[nH]c(Nc3nnc(-c4ccc5c(c4)OCCO5)o3)nc12 [Compound 86, 5-(2,3-dihydrobenzo[b][1,4]dioxin-6-yl)-N-(4-methoxy-1H-benzo[d]imidazol-2-yl)-1,3,4-oxadiazol-2-amine] |  |
| 10 to 50 | COc1cccc2[nH]c(Nc3nnc(-c4ccc5c(c4)CCO5)o3)nc12 [Compound 87, 5-(2,3-dihydrobenzofuran-5-yl)-N-(4-methoxy-1H-benzol[d]imidazol-2-yl)-1,3,4-oxadiazol-2-amine] |  |
| > 100 | CCOc1ccc(-c2nnc(Nc3nc4c(OC)cccc4[nH]3)o2)cc1OCC [Compound 88, 5-(3,4-diethoxyphenyl)-N-(4-methoxy-1H-benzo[d]imidazol-2-yl)-1,3,4-oxadiazol-2-amine] |  |
| > 100 | COc1cccc2[nH]c(Nc3nnc(-c4ccc5occc5c4)o3)nc12 [Compound 89, 5-(benzofuran-5-yl)-N-(4-methoxy-1H-benzo[d]imidazol-2-yl)-1,3,4-oxadiazol-2-amine] |  |
| > 100 | COc1cccc2[nH]c(Nc3nnc(N4C[C@H](C)C[C@H](C)C4)o3)nc12 [Compound 92, 5-((3R,5S)-3,5-dimethylpiperidin-1-yl)-N-(4-methoxy-1H-benzo[d]imidazol-2-yl)-1,3,4-oxadiazol-2-amine] |  |
| < 10 | COc1cccc2nc(Nc3nnc(C4CCC(C(C)(C)C)CC4)o3)[nH]c12 (centres unmarked) [Compound 94, 5-(4-(tert-butyl)cyclohexyl)-N-(7-methoxy-1H-benzo[d]imidazol-2-yl)-1,3,4-oxadiazol-2-amine] |  |
| 10 to 50 | COc1cccc2nc(Nc3nnc(C4C[C@H]5CC[C@@H]4C5)o3)[nH]c12 (stereo partly drawn) [Compound 96, 5-((1R,4S)-bicyclo[2.2.1]heptan-2-yl)-N-(7-methoxy-1H-benzo[d]imidazol-2-yl)-1,3,4-oxadiazol-2-amine] |  |
| < 10 | [2H]C([2H])([2H])Oc1ccc(-c2nnc(Nc3nc4c(OC)nccc4[nH]3)o2)cc1OC([2H])([2H])[2H] [Compound 97, 5-(3,4-Dimethoxy-d3-phenyl)-N-(4-methoxy-1H-imidazo[4,5-c]pyridin-2-yl)-1,3,4-oxadiazol-2-amine] |  |
